Earlier results, collected in patent publication US11925768B2, “Method for decolonizing mammalian skin” (AVADIM HEALTH IP, INC., priority 2014, dated 2024).

Conditions: concentrations as low as

concentration producing intense pain in most tissues: about 10 mg/ml
SMILES: O=S1(=O)CCN(CN2CCS(=O)(=O)NC2)CN1 [Taurolidine, taurolidine]
